What all share (assay type): functional
For test [1], the system named is Trichophyton mentagrophytes. Description: Antifungal activity against Trichophyton mentagrophytes 445 after 72 hrs by broth microdilution assay. The settings on record: for MIC: Trichophyton mentagrophytes, 445, 72 h. A general note: Broth dilution looks for growth in wells or tubes with falling amounts of substance.
The subject of test [2] is Candida albicans. Description: Antifungal activity against Candida albicans ATCC 44859 after 24 hrs by broth microdilution assay. The settings on record: for MIC: Candida albicans, ATCC 44859, 24 h.
The test system of test [3] is Lichtheimia corymbifera. Description: Antifungal activity against Absidia corymbifera 272 after 24 hrs by broth microdilution assay. The settings on record: for MIC: Lichtheimia corymbifera, 272, 24 h.
Test [4] relates to Aspergillus fumigatus. Description: Antifungal activity against Aspergillus fumigatus 231 after 48 hrs by broth microdilution assay. The settings on record: for MIC: Aspergillus fumigatus, 231, 48 h.
The test system of test [5] is Candida tropicalis. Description: Antifungal activity against Candida tropicalis 159 after 24 hrs by broth microdilution assay. The settings on record: for MIC: Candida tropicalis, 159, 24 h.
In test [6] the test system is Trichophyton mentagrophytes. Description: Antifungal activity against Trichophyton mentagrophytes 445 after 120 hrs by broth microdilution assay. The settings on record: for MIC: Trichophyton mentagrophytes, 445, 120 h.
Test [7] concerns Candida tropicalis. Description: Antifungal activity against Candida tropicalis 159 after 48 hrs by broth microdilution assay. The settings on record: for MIC: Candida tropicalis, 159, 48 h.
The test system of test [8] is Trichosporon asahii. Description: Antifungal activity against Trichosporon asahii 1188 after 48 hrs by broth microdilution assay. The settings on record: for MIC: Trichosporon asahii, 1188, 48 h.
The subject of test [9] is Pichia kudriavzevii. Description: Antifungal activity against Candida krusei E28 after 48 hrs by broth microdilution assay. The settings on record: for MIC: Pichia kudriavzevii, E28, 48 h.
In test [10] the test system is Pichia kudriavzevii. Description: Antifungal activity against Candida krusei E28 after 24 hrs by broth microdilution assay. The settings on record: for MIC: Pichia kudriavzevii, E28, 24 h.
The test system of test [11] is Candida albicans. Description: Antifungal activity against Candida albicans ATCC 44859 after 48 hrs by broth microdilution assay. The settings on record: for MIC: Candida albicans, ATCC 44859, 48 h.
Test [12] has as its system Nakaseomyces glabratus. Description: Antifungal activity against Candida glabrata 20/I after 48 hrs by broth microdilution assay. The settings on record: for MIC: Nakaseomyces glabratus, 20/I, 48 h.
The test system of test [13] is Nakaseomyces glabratus. Description: Antifungal activity against Candida glabrata 20/I after 24 hrs by broth microdilution assay. The settings on record: for MIC: Nakaseomyces glabratus, 20/I, 24 h.
In test [14] the test system is Trichosporon asahii. Description: Antifungal activity against Trichosporon asahii 1188 after 24 hrs by broth microdilution assay. The settings on record: for MIC: Trichosporon asahii, 1188, 24 h.
Test [15] deals with Lichtheimia corymbifera. Description: Antifungal activity against Absidia corymbifera 272 after 48 hrs by broth microdilution assay. The settings on record: for MIC: Lichtheimia corymbifera, 272, 48 h.
For test [16], the system named is Aspergillus fumigatus. Description: Antifungal activity against Aspergillus fumigatus 231 after 24 hrs by broth microdilution assay. The settings on record: for MIC: Aspergillus fumigatus, 231, 24 h.

Values after ≈ are worked out from the molar mass of the structure shown.

What is called MIC is the smallest concentration in the dilution series that meets the test's criterion for growth inhibition. Read a low MIC as greater potency.

As for `COc1ccc(O)c(C(=S)NCc2ccccc2)c1`, the logMIC stood at 1.8 in test [1]; 2.1 in [2]; 1.49 in [3]; 2.4 in test [4]; 2.4 in test [5]; 1.8 in test [6]. Moreover, the logMIC in test [7], in [8], in test [9], in test [10], in [11] and in test [12] was 2.4 in each case. The logMIC in test [13] worked out at 2.4; in test [14], 2.1; in test [15] it was 2.1; in test [16], 2.4.
`Oc1ccc(Cl)cc1C(=S)NCc1ccc(Cl)c(Cl)c1`: the MIC in test [1] came out at 0.98 µM (≈ 0.34 µg/mL); in test [2], 31.2 µM (≈ 10.8 µg/mL); in test [3] it was 3.9 µM (≈ 1.35 µg/mL); in [4], 15.6 µM (≈ 5.41 µg/mL); in test [5] it was 31.2 µM (≈ 10.8 µg/mL); in [6], 0.98 µM (≈ 0.34 µg/mL). The MIC in test [7] is 62.5 µM (≈ 21.7 µg/mL); in test [8] it was 7.81 µM (≈ 2.71 µg/mL); in test [9], 15.6 µM (≈ 5.41 µg/mL); in [10] it was 3.9 µM (≈ 1.35 µg/mL); in test [11] it was 31.2 µM (≈ 10.8 µg/mL); in test [12], 31.2 µM (≈ 10.8 µg/mL). Moreover, the minimum inhibitory concentration (MIC) in test [13] is 31.2 µM (≈ 10.8 µg/mL); in [14], 3.9 µM (≈ 1.35 µg/mL); in [15], 7.81 µM (≈ 2.71 µg/mL); in [16], 3.9 µM (≈ 1.35 µg/mL).
As for `CC(C)(C)c1ccc(CNC(=S)c2ccccc2O)cc1`, the minimal inhibitory concentration (MIC) was 15.6 µM (≈ 4.68 µg/mL) in [1]; more than 500 µM in test [2]; 15.6 µM (≈ 4.68 µg/mL) in test [3]; more than 500 µM in test [4]; more than 500 µM in [5]; 15.6 µM (≈ 4.68 µg/mL) in test [6]. Further, the MIC in [7] is more than 500 µM; in [8], 250 µM (≈ 74.9 µg/mL); in [9] it was more than 500 µM; in test [10] it was more than 500 µM; in [11], more than 500 µM; in [12], more than 500 µM. In addition, the MIC was more than 500 µM in test [13], 250 µM (≈ 74.9 µg/mL) in test [14], 62.5 µM (≈ 18.7 µg/mL) in test [15] and 250 µM (≈ 74.9 µg/mL) in [16].
In the case of `Cc1cccc(CNC(=S)c2ccccc2O)c1`, the MIC was 15.6 µM (≈ 4.02 µg/mL) in test [1]; 125 µM (≈ 32.2 µg/mL) in [2]; 62.5 µM (≈ 16.1 µg/mL) in test [3]; 62.5 µM (≈ 16.1 µg/mL) in [4]; 125 µM (≈ 32.2 µg/mL) in test [5]; 15.6 µM (≈ 4.02 µg/mL) in test [6]. Moreover, the MIC turned out to be 250 µM (≈ 64.3 µg/mL) in test [7]; 62.5 µM (≈ 16.1 µg/mL) in test [8]; 250 µM (≈ 64.3 µg/mL) in test [9]; 125 µM (≈ 32.2 µg/mL) in test [10]; 250 µM (≈ 64.3 µg/mL) in [11]; 250 µM (≈ 64.3 µg/mL) in test [12]. The MIC was determined as 125 µM (≈ 32.2 µg/mL) in [13], 31.2 µM (≈ 8.04 µg/mL) in test [14], 15.6 µM (≈ 4.02 µg/mL) in test [15] and 62.5 µM (≈ 16.1 µg/mL) in [16].
On to `Cc1ccc(CNC(=S)c2ccc(C)cc2O)cc1`, for which the MIC was found to be 15.6 µM (≈ 4.24 µg/mL) in test [1]; 125 µM (≈ 33.9 µg/mL) in test [2]; 7.81 µM (≈ 2.12 µg/mL) in test [3]; 500 µM (≈ 136 µg/mL) in test [4]; 125 µM (≈ 33.9 µg/mL) in test [5]; 15.6 µM (≈ 4.24 µg/mL) in test [6]. In addition, the MIC came to 500 µM (≈ 136 µg/mL) in [7]; 62.5 µM (≈ 17 µg/mL) in [8]; 125 µM (≈ 33.9 µg/mL) in test [9]; 62.5 µM (≈ 17 µg/mL) in [10]; 250 µM (≈ 67.8 µg/mL) in test [11]; 500 µM (≈ 136 µg/mL) in test [12]. The MIC was determined as 125 µM (≈ 33.9 µg/mL) in test [13], 31.2 µM (≈ 8.48 µg/mL) in [14], 31.2 µM (≈ 8.48 µg/mL) in test [15] and 125 µM (≈ 33.9 µg/mL) in test [16].
`Oc1ccc(Br)cc1C(=S)NCc1ccc(Br)cc1`: the MIC in test [1] came out at 15.6 µM (≈ 6.27 µg/mL); in test [2] it was 15.6 µM (≈ 6.27 µg/mL); in test [3], 3.9 µM (≈ 1.56 µg/mL); in test [4] it was 15.6 µM (≈ 6.27 µg/mL); in test [5], 31.2 µM (≈ 12.5 µg/mL); in test [6], 31.2 µM (≈ 12.5 µg/mL). Also, the minimum inhibitory concentration (MIC) stood at 31.2 µM (≈ 12.5 µg/mL) in test [7]; 7.81 µM (≈ 3.13 µg/mL) in test [8]; 15.6 µM (≈ 6.27 µg/mL) in test [9]; 3.9 µM (≈ 1.56 µg/mL) in test [10]; 31.2 µM (≈ 12.5 µg/mL) in test [11]; 125 µM (≈ 50.1 µg/mL) in [12]. Besides, the MIC in test [13] is 31.2 µM (≈ 12.5 µg/mL); in test [14] it was 3.9 µM (≈ 1.56 µg/mL); in test [15], 3.9 µM (≈ 1.56 µg/mL); in test [16], 15.6 µM (≈ 6.27 µg/mL).

The record behind these values is ChEMBL document CHEMBL1208720, “N-Benzylsalicylthioamides as novel compounds with promising antimycotic activity” (2010).
